Reference: a melting point compilation (Tetko et al.; mined from patent text by program, amines drawn as free bases though some values may be those of a salt)

SMILES	melting point
CC(C)(C)c1nnc(Oc2ccc(N)cc2)o1	80 to 81 °C
COC(=O)c1cc(Cl)c(OCCn2ccnc2)s1	97 to 99 °C
CCOC(=O)CCc1cn(-c2ccccc2)nc1O	116 to 118 °C
Cc1ccc(-c2c(NS(=O)(=O)c3ccc(C(C)(C)C)cc3)nc(NCCO)nc2OCCOCc2ccccc2)cc1	124 to 126 °C
CCCc1nc(C)c2c(=O)[nH]c(N)nn12	266 °C
CCCn1nc(C)c2c1C1=NC(C)CN1C(C)=N2 (configuration not stated)	85 to 90 °C
CN(C)c1c(Cl)cc(C(O)C#Cc2ccc(C(=O)O)c(O)c2)cc1C(C)(C)C (configuration not stated)	175 °C
OC1(c2ccc(-c3ccccc3)nc2)CN2CCC1CC2 (configuration not stated)	214 °C
CCCCCCC(C(=O)OCC)n1cnc2c([N+](=O)[O-])cccc21 (configuration not stated)	86 to 89 °C
OC(CCl)COc1cccc2sncc12 (configuration not stated)	104 to 106 °C
CN1c2cccc3cccc(c23)N(C)C1(C)C	53 to 57 °C
CC(=NOc1ccc(Cl)cc1)c1ccc(C(F)(F)F)cc1NS(=O)(=O)C(F)(F)F	89 to 90 °C
Cn1nc(O[C@@H]2c3cc(C#N)ccc3OC(CF)(CF)[C@H]2O)ccc1=O (relative stereo)	215 to 217 °C
CCn1c2ccccc2c2cc(NC(C)=O)ccc21	195 to 197 °C
O=C(Nc1ncnc2c1ncn2C1OC(CO)C(O)C1O)c1ccccc1 (configuration not stated)	151 to 153 °C
COc1cccc(CCc2c(CCNC(=O)CCCCC(=O)NCCc3ccc(NS(C)(=O)=O)cc3)ccc(OC)c2OC)c1	157 to 159 °C
Cn1cc(-c2cc(F)c(F)c(OC3SCC(O)C(O)C3O)c2)cn1 (configuration not stated)	184 °C
CCOC(=NC(=O)c1cc(C(F)(F)F)cc(C(F)(F)F)c1)N1Cc2ccccc2-c2ccccc2C1	129 to 130 °C
CCOC(=O)c1ccccc1-c1cc(-c2cccc(C(F)(F)F)c2)no1	28 to 30 °C
N#CC(C#N)=C1C=C(C=Cc2ccc(N)cc2)OC(C=Cc2ccc(N)cc2)=C1	249 °C
Clc1ccc(-c2ncoc2-c2ccncc2)cc1Cl	142 °C
CON(C(=N)N)c1nc(C)cc(C)n1	134 to 136 °C
NC(=O)Cc1ccc(CCCOCCCCCCNCC(O)c2cc(Cl)c(N)c(Cl)c2)cc1 (configuration not stated)	104 to 106 °C
COc1ccc2ccc3c(c2c1)C(CC#N)CCO3 (configuration not stated)	122 to 123 °C
O=[N+]([O-])c1ccc(-c2c(Cl)ncnc2NS(=O)(=O)c2ccc(Cl)cc2)cc1	282 to 285 °C

SMILES	melting point
CNc1cccc(C(C)=O)c1OCCCN1CCC(c2noc3cc(F)ccc23)CC1	151 to 153 °C
CCC(CC)Oc1nc(C)nc(Nc2c(C)cc(C)cc2C)c1CO	121 to 123 °C
COc1ccc(CNC(=O)c2sc3ccccc3c2Br)cc1	123 to 124 °C
CCOC(=O)C(=O)Nc1cc(C#N)cc([N+](=O)[O-])c1	114 to 116 °C
Cn1cccc1-c1cc2cccnc2[nH]1	183 °C
COc1ccccc1-c1nc(N)ncc1-c1ccc(=O)n(C(C)C)n1	170 °C
O=[N+]([O-])c1ccccc1NC1CCCCC1	105 to 107 °C
c1ccc(COc2ccc(-c3nc(COc4cccc(CCCn5ccnc5)c4)co3)cc2)cc1	144 to 145 °C
CCc1c(-c2ccc(O)cc2)c2cc(COCCN3CCCCC3)c3cccc1n32	132 to 134 °C
COC(=O)C1Oc2ccc(Cl)cc2C(c2ccccc2)(C(C)C)O1 (configuration not stated)	114 to 115 °C
CC[C@@H](c1ccc(C(F)(F)F)cc1)N(Cc1ccc(C(=O)OC)cc1)S(=O)(=O)c1ccc(Cl)cc1	120 to 121 °C
COC(=O)CC(C#Cc1cccc(-c2noc(C)n2)c1)c1ccc(OC)c(OC2CCCC2)c1 (racemic)	66 to 68 °C
COc1cc2c(cc1OCc1ccccc1)CCN(Cc1cccc(OC)c1OC)C2	106 to 107 °C
Fc1ccccc1C1=CCc2nnc(-c3ccncc3)n2-c2ccc(Cl)cc21	198 to 200 °C
OC1CSc2nc(SCc3ccccc3)nn21 (configuration not stated)	136 to 138 °C
Nc1ccc(-c2noc(-c3cnc4ccc(-c5ccc(C(F)(F)F)cc5)cn34)n2)cn1	258 °C
Cc1nc2c(c(-c3ccccc3)nn2C)c(-c2ccc(F)cc2)c1CO	231 to 236 °C
Nc1ccc(S(=O)(=O)c2cc(C3CC3)nc(N3CCCC3)c2)cc1	216 to 218 °C
CS(=O)(=O)c1c(C(=O)c2cnoc2C2CC2)ccc2c1OC(F)(F)O2	162 to 163 °C
O=C(CCCN1CCN2c3ccccc3NC(=O)C2C1)c1ccc(F)cc1 (configuration not stated)	145 to 150 °C
CCCCc1nc2cccc(C(=O)O)c2n1Cc1ccc(-c2ccccc2-c2nc(=S)o[nH]2)cc1	178 to 180 °C
COc1cc2c(cc1O)CN(C(C)=O)CC2	142 to 144 °C
CC(C)Nc1cncc(C(=NCCO[N+](=O)[O-])NC#N)c1	123 °C
CC(=O)c1cccc(-n2ccnc2)c1	69 to 71 °C
CC(C)(C)C(=O)C=C(c1ccc(Cl)cc1)S(=O)(=O)c1ccccc1	135 to 136 °C

SMILES	melting point
OC(CNC1CC1)COc1ccc(-c2nc(C(F)(F)F)c[nH]2)cc1 (configuration not stated)	169 to 171 °C
O=C(NC1CCCN(Cc2ccccc2)C1)c1ccc2[nH]ncc2c1 (configuration not stated)	203 to 204 °C
COC(=O)c1ncnn1Cc1ccc([N+](=O)[O-])cc1	126 to 130 °C
O=C1NCc2c1cc1ccc3c(c1c2-c1ccncc1)OCO3	316 to 319 °C
O=C(CCNc1c(C(=O)O)[nH]c2cc(Cl)ccc12)c1cccc(F)c1	258 to 260 °C
COC(=O)CCCC(=O)c1ccc2c(c1)CCO2	80 to 81 °C
CCC(C1OC(=O)c2ccccc21)[N+](=O)[O-] (configuration not stated)	90 to 92 °C
CCOc1nn(-c2ccc(C(F)(F)F)cn2)cc1CCOc1ccccc1CC(=O)O	134 to 135 °C
O=C1C(=O)N(c2ccc(Cl)cc2)C(=O)N1c1ccccc1	154 °C
CC(C)(C)OCCCNC(=O)c1nn(C2CCCCO2)cc1NC(=O)c1ccccn1 (configuration not stated)	101 to 103 °C
CC(C)(OCc1cc2nc(C(F)(F)F)ccc2n1S(=O)(=O)c1ccccc1)C(=O)O	122 to 125 °C
O=C1CCC(c2ccc(-c3ccc(=O)[nH]n3)cc2)=NN1	> 250 °C
C=Cc1c(NC(=O)c2cn(C)nc2C(F)(F)F)cccc1C(C)(C)C	118 to 119 °C
CS(=O)(=O)NCc1ccc(-n2c(-c3cccnc3N)nc3cc(-c4cccnc4)cnc32)cc1	127 to 129 °C
Cc1noc(NC(=O)N2CCN(c3cc(-c4ccc(F)cc4F)ncn3)CC2)c1C	198 to 199 °C
CCC(=O)N(C(=O)CC)c1nc2c(c(-c3ccccc3)cn2C)c(=O)n1C	215 to 217 °C
CC(C)(C)CC(C)(C)c1cc(N=Nc2cc(C(=O)O)ccc2Cl)c(O)c(C(C)(C)c2ccccc2)c1	218 to 220 °C
CCc1ccc2c(c1)C=Cc1cc(C)ccc1C2c1cn(Cc2ccc(C(=O)Nc3nnn[nH]3)o2)c(=O)[nH]c1=S (configuration not stated)	260 °C
CN(CCCC(C(N)=O)(c1ccccc1)c1ccccc1)CCc1ccc(CN)cc1	139 to 142 °C
CCc1occc(=O)c1OCc1ccccc1	33 to 34 °C
CCOC(=O)c1ncn2c1CN=C(c1ccccc1Cl)c1cc(Cl)ccc1-2	215 to 220 °C
COc1ccc(COc2ccc(N)cc2)cc1	118 to 120 °C
COCS(=O)(=O)[C@H](C)[C@](O)(Cn1cncn1)c1ccc(F)cc1F	102 to 103 °C
NS(=O)(=O)c1cccc(-c2noc(-c3cnn4c(C5CC5)cc(-c5ccc(C(F)(F)F)cc5)nc34)n2)c1	277 °C
CC(C)(C)NCC(O)COc1ccc2c(c1-c1nc(C(F)(F)F)c[nH]1)CCCC2 (configuration not stated)	203 to 205 °C

SMILES	melting point
O=CCC1Cc2ccc(Cl)cc2C1=O (racemic)	80 °C
O=C(NCC(=O)N(c1ccccc1)c1ccccc1)Nc1cccc(O)c1	244 °C
O=C(Nc1ccc(OCCN2CCOCC2)c2ccccc12)c1cccc(-c2cccnc2)c1	77 to 78 °C
ON=C1c2ccccc2C2CC2c2ccccc21 (configuration not stated)	201 °C
COc1ccc(CNC(=O)c2ccc3n2Cc2ccccc2N(C(=O)c2ccc(-c4ccccc4C)c(OC)c2)C3)cc1	178 to 179 °C
CC1(C)Oc2ccc(Cl)cc2[C@@H](N2CCCC2=O)[C@@H]1O (relative stereo)	202 to 203 °C
CC(C)NC(=O)C(C)CN(C)C (configuration not stated)	67 to 69 °C
CCCCCCCCOC1(OC(=O)C2CCCO2)C=CC(c2ccccc2)=CC1 (configuration not stated)	119 °C
CN1CCN(c2ccc(-c3cnc4c(c3)N(Cc3c(F)ccc(F)c3Cl)CCN4)cn2)CC1	219 °C
CC1CCN(c2ccc(N)cc2C(=O)c2ccc(Cl)cc2)CC1	89 °C
O=C(O)c1cc2cc3c(cc2c2cc(OCc4ccccc4)ccc12)OCO3	263 to 265 °C
CNC(=O)c1cc(F)ccc1CNC(=O)c1nc2n(c(=O)c1OCc1ccccc1)CCOC2	189 to 190 °C
O=C(O)COc1cccc2c1Cc1sc(SCC(c3ccccc3)c3ccccc3)nc1-2	207 to 210 °C
CCOC(=O)C1(C)C(=O)Nc2cc(N)ccc21 (configuration not stated)	248 °C
O=C(O)c1ccc2c(c1)C(=O)c1cc3c(cc1OC2)OCO3	320 to 321 °C
Cc1ccc2c(c1)c(N1CCN(C(=O)c3ccco3)CC1)c(C#N)c(=O)n2Cc1ccc(F)cc1	276 °C
Cc1c2n(c3ccccc13)C(=O)C(Cc1cn(C)cn1)CC2 (configuration not stated)	99 to 100 °C
CCOC(=O)c1cccn1CCN1CCC(=C2c3ccccc3CCn3ccnc32)CC1	158 °C
Cc1nc(NC(=O)c2cccc(C#N)c2)sc1C(=O)NCc1ccccc1	207 to 208 °C
CCNC(=O)[C@@H]1C[C@H](OS(C)(=O)=O)CN1C(=O)OC(C)(C)C	138 to 140 °C
NS(=O)(=O)c1c(Cl)cccc1-c1ccccc1	185 to 187 °C
CCCCC(=N)NC(=O)Nc1ccc([N+](=O)[O-])cc1	187 to 191 °C
